How the values were obtained:
NHEK [1] = test: Keratinocyte differentiation marker (KDM) mRNA in NHEK (RT-PCR); assay type: cell-based, human; settings: 24 h
Method: (§1) Normal human epidermal keratinocytes (NHEK) were obtained as previously described, from surgical samples of healthy breast skin (Boniface et al, 2005). NHEK were cultured to 80% of confluence allowing the expression of a large panel of keratinocyte differentiation markers, and then starved for 24 h in Keratinocyte SFM containing 0.03 mM Ca^2+ (Invitrogen Life Technologies, Cergy Pontoise, France) before stimulation. Confluent differentiated cells were stimulated with or without recombinant IL-17A, OSM, TNFα, IL-22 and IL-1α alone at maximum effective concentrations (reported previously around 10 ng/ml (Boniface et al, 2005 and Boniface et al, 2007)) or in combination (R&D systems Europe, Lille, France) during 2 h to 72 h for mRNA quantification. RHE were generated on polycarbonate culture inserts, from surgical samples of paediatric foreskins as previously described (Guenou et al., 2009). RHE were stimulated with or without recombinant IL-17A, OSM, TNFα, IL-22 and IL-1α alone or in combination, with or without a Janus protein Tyrosine Kinases (JAKs) inhibitor 10 μM (Calbiochem, 420099), during 24 h for mRNA quantification or during 72 h for immunohistological analysis.
(§2) NHEK, RHE and murine skin total RNA were isolated using NucleoSpin® RNA II kit (Macherey-Nagel, Hoerdt, France) and reverse-transcribed with SuperScript® II Reverse Transcriptase (Invitrogen Life Technologies) according to the manufacturer's instructions. Quantitative real time PCR was carried out using the LightCycler-FastStart DNA Master SYBR® Green I kit on LightCycler 480 (Roche Diagnostics, Meylan, France). The reaction components were 1×DNA Master Mix, and 0.5 μM of HPLC purified sense and anti-sense oligonucleotides purchased from Eurogentec (Eurogentec France, Angers, France), designed using Primer3 software. The stability of the housekeeping gene expression has been assessed by using GeNorm algorithm. […] Thus samples were normalized to G3PDH housekeeping gene and reported according to the ΔΔCT method as RNA fold increase: 2^ΔΔCT=2^ΔCT sample−ΔCT reference.

MAP kinase (ERK1/2) = test: MAP kinase phosphorylation in NHEK (Western blot); assay type: cell-based, human; settings: NHEK stimulated with OSM
Method: (§3) For STAT3 and MAPK phosphorylation, NHEK were stimulated for 15 min in the presence of the indicated cytokine. Cells were lysed in SDS sample buffer (62.5 mM Tris-HCl pH 6.8, 2% SDS, 10% glycerol, 50 mM DTT, 0.1% bromophenol blue), sonicated and then submitted to SDS-PAGE and transferred onto an Immobilon membrane. The membranes were subsequently incubated overnight with the primary antibody, before being incubated with the appropriate peroxidase-labelled secondary antibody for 60 min. The reaction was visualized by chemiluminescence according to the manufacturer's instructions. Membranes were stripped in 0.1 M glycine pH 2.8 for 2 h and neutralized in 1 M Tris-HCl pH 7.6 before reblotting. For neutralizing experiments, NHEK were incubated with the appropriate antibodies for 2 h before stimulation.

[2] = system: reconstituted human epidermis (RHE); test: Gene expression profiling of RHE using cDNA macroarrays; assay type: cell-based; settings: 10 ng/ml OSM 24 h
Method: Total RNA was isolated as described for PCR studies. DNase treatment, polyA^+ RNA enrichment, ^33P-labelled cDNA probe synthesis, purification and hybridization to custom Atlas array membranes (Bernard, Pedretti et al. 2002) were performed according to Clontech's recommendations (Clontech, Palo Alto, USA). Membranes were exposed for 5 days to a Molecular Dynamics Storm storage screen and scanned using a phosphorimager scanner (Molecular Dynamics Storm analyser, Amersham Biosciences, Uppsala, Sweden). After local background substraction, average signal intensity from duplicate spots was normalized for differences in probe labelling using the values obtained for housekeeping genes (Bernard et al., 2002). For each gene, the OSM-induced modulation was expressed as the relative expression value for stimulated versus control sample. Arbitrarily, only modulation above 2 was considered significant for confirmation using RT-real time PCR assay.
For gene expression profiling using cDNA macroarrays, 17 days old RHE were grown for 1 day in SkinEthic maintenance medium prior to stimulation in the absence or presence of OSM for 24 h. Total RNA was isolated and cDNA arrays were performed as described above.

[3] = system: reconstituted human epidermis (RHE); test: Reconstituted human epidermis model, histology and immunohistochemistry (OSM); assay type: cell-based
Method: For histological and immunohistochemical studies, RHE, grown for 12 days at the air-medium interface, were purchased from SkinEthic Laboratories (Nice, France). […] As recommended, RHE were grown for 1 day in SkinEthic growth medium prior to stimulation in the absence or presence of OSM for 4 days. They were then fixed in a balanced 10% formalin solution and embedded in paraffin. Four micron vertical sections were stained with heamatoxylin/eosin or with specific Ab and peroxidase-conjugated Antibodies, and counterstained with haematoxylin according to standard protocols (Rosdy, Bertino et al. 1997). Anti-K10 keratin and anti-filaggrin monoclonal Antibodies were from Lab Vision Corporation (Fremont, Calif., USA).

STAT3 = STAT3 phosphorylation in NHEK (Western blot); assay type: cell-based, human
Method: as §3

NHEK [4] = test: Chemokine production by NHEK (ELISA), OSM; assay type: cell-based, human; settings: 48 h NHEK under OSM stimulation
Method: IL-1beta, IL-6, IL-8, IL-10, IL-12p70, TNF alpha, ENA-78, MIP 3 beta were measured by specific ELISA in 48 h NHEK culture supernatants. Cells were cultured in the presence or not of OSM. Dose-response (0.4 to 25 ng/ml) and kinetic (6 to 96 h) studies of ENA78 production were also performed.

RHE = test: KDM mRNA in reconstituted human epidermis (RT-PCR); assay type: cell-based; settings: 24 h
Method: as §1, §2

NHEK [5] = test: Cytokine measurement by ELISA in NHEK culture supernatants; assay type: cell-based, human; settings: 10 ng/ml, 96 h
Method: NHEK were obtained as previously described, from surgical samples of healthy breast skin (Boniface et al, 2005). NHEK were cultured to 80% of confluence and then starved for 24 h in Keratinocyte SFM without addition of growth factors before stimulation. Cells were stimulated with or without 10 ng/ml of recombinant IL-17A, OSM, TNFα, IL-22 and IL-1α alone or in combination (R&D systems Europe, Lille, France) during 24 h for mRNA quantification or 48 h to 96 h for protein quantification.
Levels of BD2, BD3 and CXCL8 were determined using Human ELISA development kit (Peprotech), and CXCL1 and CXCL5 with DuoSet reagents (R&D Systems Europe).

With “OSM: human recombinant oncostatin M, cytokine of the IL-6 family” the “Rank as contributor to keratinocyte differentiation inhibition (removal from M5)” value (NHEK [1]) was “most potent cytokines for keratinocyte differentiation inhibition”, the “mRNA expression of CK1, DSG1, DSC1, FLG, CLSP, LOR and FABPS” value (NHEK [1]; single cytokines 10 ng/ml) was “downregulate mRNA expression” and the MAP kinase phosphorylation (MAP kinase (ERK1/2)) was “quickly increased the MAP kinase phosphorylation”. The “S100A7, S100A8, S100A9 and S100 neutrophil protein gene expression” value [2] was “strongly up-regulated”, the “Hyperplasia / overall thickness of RHE” value ([3]; 10 ng/ml OSM, 4 days) was “triggered the hyperplasia of the keratinocytes layers” and the Ki67 expression ([3]; RHE treated with OSM) was “not induced”. The “Filaggrin and keratin 10 expression (immunohistochemistry)” value ([3]; RHE, 10 ng/ml OSM, 4 days) was “decrease of filaggrin and keratin 10 expression”, the “S100A7 protein (immunohistochemistry)” value ([3]; RHE, 10 ng/ml OSM, 4 days) was “S100A7 protein up-regulation” and the “STAT3 tyrosine phosphorylation (P-STAT3)” value (STAT3; NHEK stimulated 15 min with the cytokine) was “strong induction of tyrosine phosphorylation”. The “OSM concentration down to which plateau P-STAT3 level is still present” value (STAT3; NHEK, 15 min) was ≥ 3 ng/mL, the “Production of chemokines CXCL5 and CXCL8” value (NHEK [4]) was “clearly enhanced” and the “Expression of KDM mRNA (CK10, CK1, LOR, FLG)” value (RHE) was “most active cytokines”. The “S100A7 mRNA expression” value (RHE) was “strongly induced”, the BD3 production (NHEK [5]) was “significant increase” and the “CXCL1, CXCL5, CXCL8 production, single cytokines” value (NHEK [5]) was “discrete effect”.
